In US8012945B2, “Phage antibodies to radiation-inducible neoantigens” (Vanderbilt University, priority 2001, dated 2011):

Assays:
[1] = target: T1, GP-IIb/IIIa receptors on activated platelets (Homo sapiens, UniProt P05106+P08514); test: Clinical trial of x-ray-guided delivery, gamma camera/SPECT imaging of ^99mTc-labeled biapcitide; format: in vivo
T1 construct: endogenous in cells; host or cells: platelets in irradiated tumours of patients (in vivo imaging)
Method: Biapcitide (ACUTECT® available from Diatide, Inc., Londonderry, N.H., United States of America) is a synthetic peptide that binds to GP-IIb/IIIa receptors on activated platelets (Hawiger et al., 1989; Hawiger & Timmons, 1992). Biapcitide was labeled with ^99mTc in accordance with a protocol provided by Diatide Inc.
Reconstituted ^99mTc-labeled biapcitide was administered to patients at a dose of 100 mcg of biapcitide radiolabeled with 10 millicuries (mCi) of ^99mTc. […] Patients were then treated with 10 Gy or more. Patients underwent gamma camera imaging prior to irradiation and 24 hours following irradiation. Following planar image acquisition, those patients showing uptake in irradiated tumors underwent tomographic imaging using SPECT and repeat imaging at 24 hours. Patients showing no uptake on planer images during this 24-hour time frame had no further imaging.
Patients were treated with X-irradiation ranging from 4 to 18 MV photon using external beam linear accelerator at Vanderbilt University. Appropriate blocks, wedges and bolus to deliver adequate dose to the planned target volume was utilized. The site of irradiation, treatment intent and normal tissue considerations determined the radiation dosage and volume. When stereotactic radiosurgery was used, the dose was prescribed to the tumor periphery.
Image Analysis. Image acquisition consisted of both planar and single photon emission computed tomography (SPECT) studies. […] The spatial distribution of […] within the planar image was measured using region of interest (ROI) analysis. […] The rationale for using ROIs with different dimensions is to be able to quantify image counts while at the same time isolating any possible influence of ROI size on the results. […] Background counts was determined based on ROI analysis of a separate planar acquisition performed in the absence of a radioactive source.
Three-dimensional nuclear medicine SPECT examinations were performed using the same dual-head gamma camera system. […] SPECT tumor-to-background ratios were computed using quantitative ROI techniques identical to the planar studies.

B16F0 tumors = test: Biotinylated dodecapeptide binding in B16F0 hind limb tumors, Avidin-FITC staining; format: in vivo, mice
Description: Observations. The peptide sequence within fibrinogen that binds to the activated GPIIb/IIIa receptor is the dodecapeptide […] (SEQ ID NO: 16). To determine whether […] (SEQ ID NO: 16) binds in irradiated tumors, applicant utilized the peptide […] (SEQ ID NO: 16) linked to biotin by a serine-glycine linker ([…]-SGSGSK-biotin; SEQ ID NO: 30). This peptide was synthesized in the Vanderbilt University Peptide Core Lab and biotinylated at the carboxyl terminus. The resulting […]-SGSGSK-biotin (SEQ ID NO: 30) was administered by tail vein injection into tumor bearing mice. B16F0 tumors in the hind limb were treated with sham irradiation (control), 4 Gy irradiation followed by […]-SGSGSK-biotin (SEQ ID NO: 30) injection, or […]-SGSGSK-biotin (SEQ ID NO: 30) followed by tumor irradiation (4 Gy). Tumors were frozen at 4 hours and sectioned for fluorescence staining. Avidin-FITC was incubated with tumor sections and imaged by UV microscopy.

α2bβ3 receptor = target: T2, α2bβ3 receptor (Mus musculus, UniProt O54890+Q9QUM0); test: Recombinant phage binding in irradiated tumors after blocking antibody, plaque formation; format: in vivo; conditions: phage quantified by plaque formation
T2 construct: from tissue; host or cells: irradiated tumours (blood vessels and platelets) in living mice
T2 sequence (Q9QUM0 32-1033): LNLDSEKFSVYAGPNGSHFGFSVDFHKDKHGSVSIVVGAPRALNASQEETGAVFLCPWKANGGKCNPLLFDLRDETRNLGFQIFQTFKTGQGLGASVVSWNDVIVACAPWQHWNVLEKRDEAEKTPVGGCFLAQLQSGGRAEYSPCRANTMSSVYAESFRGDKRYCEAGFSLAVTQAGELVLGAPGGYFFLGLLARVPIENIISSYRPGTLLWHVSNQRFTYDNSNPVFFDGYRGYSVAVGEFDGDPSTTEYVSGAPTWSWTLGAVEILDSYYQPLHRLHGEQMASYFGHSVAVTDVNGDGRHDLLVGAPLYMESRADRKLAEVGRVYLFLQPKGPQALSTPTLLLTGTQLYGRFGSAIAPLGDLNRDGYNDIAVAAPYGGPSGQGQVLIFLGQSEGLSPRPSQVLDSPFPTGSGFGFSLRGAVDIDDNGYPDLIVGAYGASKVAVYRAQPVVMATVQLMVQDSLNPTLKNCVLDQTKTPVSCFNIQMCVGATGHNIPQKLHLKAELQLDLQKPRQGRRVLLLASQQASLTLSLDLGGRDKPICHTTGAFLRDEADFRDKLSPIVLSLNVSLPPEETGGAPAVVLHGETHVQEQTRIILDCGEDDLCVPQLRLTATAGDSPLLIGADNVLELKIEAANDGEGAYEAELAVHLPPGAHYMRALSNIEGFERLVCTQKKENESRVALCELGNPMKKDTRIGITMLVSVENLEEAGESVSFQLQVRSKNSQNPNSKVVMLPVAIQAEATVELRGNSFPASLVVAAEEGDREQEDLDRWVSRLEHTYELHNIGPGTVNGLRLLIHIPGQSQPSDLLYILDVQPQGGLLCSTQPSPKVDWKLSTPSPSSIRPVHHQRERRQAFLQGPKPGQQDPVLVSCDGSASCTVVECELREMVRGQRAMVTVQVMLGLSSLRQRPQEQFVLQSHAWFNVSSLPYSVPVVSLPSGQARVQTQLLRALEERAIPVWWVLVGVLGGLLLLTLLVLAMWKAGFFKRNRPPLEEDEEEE
T2 sequence (O54890 26-787): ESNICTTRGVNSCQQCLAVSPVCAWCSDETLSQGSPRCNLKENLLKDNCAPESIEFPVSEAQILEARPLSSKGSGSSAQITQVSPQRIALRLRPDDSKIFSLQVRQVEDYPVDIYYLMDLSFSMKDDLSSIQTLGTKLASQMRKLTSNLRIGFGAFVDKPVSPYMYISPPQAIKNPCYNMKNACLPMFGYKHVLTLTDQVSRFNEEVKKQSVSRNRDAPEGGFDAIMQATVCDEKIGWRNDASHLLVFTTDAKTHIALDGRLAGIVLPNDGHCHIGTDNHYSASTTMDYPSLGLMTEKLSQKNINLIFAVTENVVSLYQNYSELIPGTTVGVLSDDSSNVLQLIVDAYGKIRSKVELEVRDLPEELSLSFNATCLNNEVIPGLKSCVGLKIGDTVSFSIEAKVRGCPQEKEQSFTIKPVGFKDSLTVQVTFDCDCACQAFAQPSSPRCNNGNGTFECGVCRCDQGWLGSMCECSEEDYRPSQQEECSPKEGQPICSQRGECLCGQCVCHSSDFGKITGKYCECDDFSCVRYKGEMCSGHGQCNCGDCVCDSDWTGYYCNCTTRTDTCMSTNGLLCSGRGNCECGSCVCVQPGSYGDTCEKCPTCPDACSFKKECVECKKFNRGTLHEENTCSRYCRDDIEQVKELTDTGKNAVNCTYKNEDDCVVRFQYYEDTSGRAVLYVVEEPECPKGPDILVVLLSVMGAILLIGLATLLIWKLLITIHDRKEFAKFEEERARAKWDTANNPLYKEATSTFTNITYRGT
Method: The anti-[…]2b[…]3 monoclonal antibody was administered by tail vein to determine whether this receptor is required for recombinant phage binding in irradiated tumors. Phage encoding […] (SEQ ID NO: 5) on the capsid protein were injected immediately after blocking antibody or control antibody. Phage were recovered from the tumor and controls organs and quantified by plaque formation. Radiation induced a 4-fold increase in phage binding in tumor. […] Thus, the tumor binding activity of targeting peptide […] (SEQ ID NO: 5) is dependent on its interaction with the α2bβ3 receptor.

T1 sequence (P08514 32-887 limits assumed): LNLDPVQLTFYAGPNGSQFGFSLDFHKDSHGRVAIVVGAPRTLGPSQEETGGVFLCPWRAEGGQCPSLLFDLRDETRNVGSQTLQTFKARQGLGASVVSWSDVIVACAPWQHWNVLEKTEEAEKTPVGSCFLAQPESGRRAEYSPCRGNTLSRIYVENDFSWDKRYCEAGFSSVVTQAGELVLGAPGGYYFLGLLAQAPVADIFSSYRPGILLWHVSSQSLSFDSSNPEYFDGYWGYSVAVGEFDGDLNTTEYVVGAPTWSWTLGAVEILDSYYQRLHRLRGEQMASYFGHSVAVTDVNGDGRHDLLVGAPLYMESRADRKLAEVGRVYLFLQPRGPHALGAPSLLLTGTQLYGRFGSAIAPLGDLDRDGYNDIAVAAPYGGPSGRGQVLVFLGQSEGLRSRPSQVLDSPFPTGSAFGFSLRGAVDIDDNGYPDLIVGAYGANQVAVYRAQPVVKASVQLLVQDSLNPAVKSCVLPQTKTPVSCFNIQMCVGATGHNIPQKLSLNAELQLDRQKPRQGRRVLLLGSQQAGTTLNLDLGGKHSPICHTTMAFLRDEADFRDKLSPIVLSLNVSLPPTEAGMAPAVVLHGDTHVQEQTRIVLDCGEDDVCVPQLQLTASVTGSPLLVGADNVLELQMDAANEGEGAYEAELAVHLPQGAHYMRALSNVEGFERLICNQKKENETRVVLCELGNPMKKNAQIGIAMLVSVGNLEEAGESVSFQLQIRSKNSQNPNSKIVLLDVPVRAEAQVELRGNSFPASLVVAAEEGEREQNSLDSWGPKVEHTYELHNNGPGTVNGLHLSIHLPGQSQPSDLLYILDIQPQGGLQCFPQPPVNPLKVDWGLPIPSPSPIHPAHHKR
T1 sequence (P08514 891-1039 partner limits assumed): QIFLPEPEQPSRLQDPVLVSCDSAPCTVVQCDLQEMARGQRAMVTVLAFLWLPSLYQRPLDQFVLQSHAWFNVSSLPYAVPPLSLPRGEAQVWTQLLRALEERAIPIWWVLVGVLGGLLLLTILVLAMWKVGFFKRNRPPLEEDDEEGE
T1 sequence (P05106 27-788): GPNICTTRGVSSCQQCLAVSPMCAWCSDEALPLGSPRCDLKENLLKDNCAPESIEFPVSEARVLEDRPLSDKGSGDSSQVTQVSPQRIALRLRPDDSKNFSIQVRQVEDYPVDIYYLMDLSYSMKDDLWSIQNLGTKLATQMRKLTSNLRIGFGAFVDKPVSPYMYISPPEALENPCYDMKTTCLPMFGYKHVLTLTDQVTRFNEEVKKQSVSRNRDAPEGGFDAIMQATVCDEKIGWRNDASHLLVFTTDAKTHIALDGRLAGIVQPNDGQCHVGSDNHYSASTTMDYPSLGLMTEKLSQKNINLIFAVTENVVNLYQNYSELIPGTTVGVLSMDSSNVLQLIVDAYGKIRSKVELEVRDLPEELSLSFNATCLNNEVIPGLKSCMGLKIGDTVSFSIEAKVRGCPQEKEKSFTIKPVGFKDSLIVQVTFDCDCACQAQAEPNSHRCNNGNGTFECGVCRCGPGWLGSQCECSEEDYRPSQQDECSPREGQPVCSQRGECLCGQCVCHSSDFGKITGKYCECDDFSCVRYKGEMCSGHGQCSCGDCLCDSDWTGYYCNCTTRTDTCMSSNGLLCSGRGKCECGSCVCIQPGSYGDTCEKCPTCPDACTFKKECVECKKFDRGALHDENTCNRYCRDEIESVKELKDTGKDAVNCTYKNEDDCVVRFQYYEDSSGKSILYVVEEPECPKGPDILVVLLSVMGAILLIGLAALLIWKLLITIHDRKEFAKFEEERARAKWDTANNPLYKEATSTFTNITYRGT

Biapcitide [^99mTc-labeled biapticide]
tumor binding ([1]; administered immediately prior to radiation): 4 of 4
localization to the tumor ([1]; administered within one hour following radiation): failed to show localization
binding in untreated tumor ([1]; second neoplasms not treated with radiation, two patients): not observed

HHLGGAKQAGDV (Artificial peptide ligand number 16) [dodecapeptide, segment of the γ subunit of fibrinogen]
efficiency of schedule of administration (B16F0 tumors; administration prior to irradiation compared to radiation before administration): administration prior to irradiation is a more efficient schedule

HHLGGAKQAGDV-SGSGSK-biotin
Avidin-FITC staining of tumor sections, irradiated tumors (B16F0 tumors; 4 Gy, tumors frozen at 4 hours): Avidin-FITC stained blood vessels were observed
Avidin-FITC staining of tumor sections, untreated control (B16F0 tumors; sham irradiation): not in untreated control

SLRGDGSSV (phage-displayed; Artificial peptide ligand number 5)
radiation-induced increase in phage binding in tumor (α2bβ3 receptor): 4 fold
